Legend:
RIPK2 [1] = biological target: T1, RIPK2 (Homo sapiens, UniProt O43353); assay: RIPK2 kinase inhibition assay (ADP-Glo); assay type: biochemical; settings: mean ± SD from two separate experiments
T1 construct: purchased Promega
Protocol: RIPK2 kinase activity was analysed using the ADP-Glo™ Assay Kit (RIPK2 Kinase Enzyme System, Promega, USA). Reactions were performed according to the instructions. Specific signal was calculated by subtracting values in the wells without protein and inhibitor from the values in the test wells.

RIPK2 [2] = biological target: T1, RIPK2; assay: Lipophilic ligand efficiency (LipE); settings: LipE = pIC50 − ClogP
RIPK1 = biological target: T2, RIPK1 (Homo sapiens, UniProt Q13546); assay: RIPK1 inhibition rate at 1 µM; assay type: biochemical
T2 sequence (Q13546 1-671): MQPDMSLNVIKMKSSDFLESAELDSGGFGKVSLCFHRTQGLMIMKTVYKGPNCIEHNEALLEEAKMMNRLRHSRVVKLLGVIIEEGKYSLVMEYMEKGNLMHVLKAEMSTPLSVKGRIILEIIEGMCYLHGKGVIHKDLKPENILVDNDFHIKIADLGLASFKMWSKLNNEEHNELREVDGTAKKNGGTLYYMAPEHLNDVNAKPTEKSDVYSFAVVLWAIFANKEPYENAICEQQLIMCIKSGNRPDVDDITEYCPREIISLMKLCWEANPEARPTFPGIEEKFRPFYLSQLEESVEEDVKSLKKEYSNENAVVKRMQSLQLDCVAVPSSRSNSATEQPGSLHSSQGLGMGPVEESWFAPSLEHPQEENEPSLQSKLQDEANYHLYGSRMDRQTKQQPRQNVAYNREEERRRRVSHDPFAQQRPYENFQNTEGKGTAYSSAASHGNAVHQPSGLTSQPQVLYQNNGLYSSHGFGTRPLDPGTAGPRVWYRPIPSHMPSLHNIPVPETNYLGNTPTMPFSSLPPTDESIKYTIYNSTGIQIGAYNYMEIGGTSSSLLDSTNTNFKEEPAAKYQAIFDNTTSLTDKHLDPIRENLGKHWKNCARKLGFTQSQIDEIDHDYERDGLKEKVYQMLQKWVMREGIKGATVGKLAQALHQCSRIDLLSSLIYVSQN
Protocol: Table 4. Selectivity, ClogP and LipE of compound 14, 15, 21, 32, 36. | column: RIPK1 IR@1µM (%)

T1 sequence (O43353 whole entry): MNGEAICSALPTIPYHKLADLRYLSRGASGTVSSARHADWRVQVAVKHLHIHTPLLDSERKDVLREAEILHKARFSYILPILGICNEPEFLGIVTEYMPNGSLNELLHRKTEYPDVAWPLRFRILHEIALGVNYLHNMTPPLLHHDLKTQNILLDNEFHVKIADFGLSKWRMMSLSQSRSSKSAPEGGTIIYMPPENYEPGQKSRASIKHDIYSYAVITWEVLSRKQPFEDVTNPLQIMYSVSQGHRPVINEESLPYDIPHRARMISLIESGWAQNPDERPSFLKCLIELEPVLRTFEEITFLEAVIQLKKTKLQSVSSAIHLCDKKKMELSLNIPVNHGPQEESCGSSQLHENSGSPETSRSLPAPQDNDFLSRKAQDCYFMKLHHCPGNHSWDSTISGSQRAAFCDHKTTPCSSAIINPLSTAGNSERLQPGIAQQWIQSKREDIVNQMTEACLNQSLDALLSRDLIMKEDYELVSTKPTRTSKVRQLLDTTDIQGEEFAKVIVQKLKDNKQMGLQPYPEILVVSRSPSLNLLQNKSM

Brc1ccc2nccc(Nc3ccccc3)c2c1 [Compound 1, 6-Bromo-N-phenylquinolin-4-amine]
IC50 (RIPK2 [1]): 0.243 ± 0.0148 µM
LipE (RIPK2 [2]): 2.57

COc1cccc(Nc2ccnc3ccc(Br)cc23)c1 [Compound 2, 6-Bromo-N-(3-methoxyphenyl)quinolin-4-amine]
IC50 (RIPK2 [1]): 0.0548 ± 0.0034 µM
LipE (RIPK2 [2]): 3.10

CC(C)Oc1cccc(Nc2ccnc3ccc(Br)cc23)c1 [Compound 3, 6-Bromo-N-(3-isopropoxyphenyl)quinolin-4-amine]
IC50 (RIPK2 [1]): > 1 µM
RIPK2 IC50 (RIPK2 [1]): loss of the activity

CC(=O)c1cccc(Nc2ccnc3ccc(Br)cc23)c1 [Compound 4, 1–(3-((6-Bromoquinolin-4-yl)amino)phenyl)ethan-1-one]
IC50 (RIPK2 [1]): 0.0925 ± 0.0221 µM
LipE (RIPK2 [2]): 3.50

Fc1cc(Nc2ccnc3ccc(Br)cc23)ccc1Cl [Compound 5, 6-Bromo-N-(4-chloro-3-fluorophenyl)quinolin-4-amine]
IC50 (RIPK2 [1]): 0.0314 ± 0.0062 µM
LipE (RIPK2 [2]): 2.78

COc1cc(Nc2ccnc3ccc(Br)cc23)cc(OC)c1OC [Compound 6, 6-Bromo-N-(3,4,5-trimethoxyphenyl)quinolin-4-amine]
IC50 (RIPK2 [1]): 0.0107 ± 0.0001 µM
LipE (RIPK2 [2]): 3.63

Brc1ccc2nccc(Nc3ccccn3)c2c1 [Compound 7, 6-Bromo-N-(pyridin-2-yl)quinolin-4-amine]
IC50 (RIPK2 [1]): > 1 µM

Brc1ccc2nccc(Nc3cccnc3)c2c1 [Compound 8, 6-Bromo-N-(pyridin-3-yl)quinolin-4-amine]
IC50 (RIPK2 [1]): 0.151 ± 0.0301 µM
LipE (RIPK2 [2]): 3.68

Brc1ccc2nccc(Nc3ccncc3)c2c1 [Compound 9, 6-Bromo-N-(pyridin-4-yl)quinolin-4-amine]
IC50 (RIPK2 [1]): 0.421 ± 0.106 µM
LipE (RIPK2 [2]): 3.24

Brc1ccc2nccc(Nc3ccc4scnc4c3)c2c1 [Compound 10, N-(6-bromoquinolin-4-yl)benzo[d]thiazol-5-amine]
IC50 (RIPK2 [1]): 0.0122 ± 0.0025 µM
LipE (RIPK2 [2]): 3.97

Brc1ccc2nccc(Nc3ccc4ncsc4c3)c2c1 [Compound 11, N-(6-bromoquinolin-4-yl)benzo[d]thiazol-6-amine]
IC50 (RIPK2 [1]): 0.0823 ± 0.0122 µM
LipE (RIPK2 [2]): 3.21

Brc1ccc2nccc(Nc3ccc4cn[nH]c4c3)c2c1 [Compound 12, 6-Bromo-N-(1H-indazol-6-yl)quinolin-4-amine]
IC50 (RIPK2 [1]): 0.0222 ± 0.0052 µM
LipE (RIPK2 [2]): 3.49

Brc1ccc2nccc(Nc3ccc4[nH]ccc4c3)c2c1 [Compound 13, 6-Bromo-N-(1H-indol-5-yl)quinolin-4-amine]
IC50 (RIPK2 [1]): 0.118 ± 0.0215 µM
LipE (RIPK2 [2]): 2.82

c1ccc(-c2ccc3nccc(Nc4ccc5scnc5c4)c3c2)nc1 [Compound 16, N-(6-(pyridin-2-yl)quinolin-4-yl)benzo[d]thiazol-5-amine]
IC50 (RIPK2 [1]): 0.0036 ± 0.0014 µM
LipE (RIPK2 [2]): 4.11

c1ncc(-c2ccc3nccc(Nc4ccc5scnc5c4)c3c2)cn1 [Compound 17, N-(6-(pyrimidin-5-yl)quinolin-4-yl)benzo[d]thiazol-5-amine]
IC50 (RIPK2 [1]): 0.0015 ± 0.0003 µM
LipE (RIPK2 [2]): 2.80

c1ccc(-c2ccc3nccc(Nc4ccc5scnc5c4)c3c2)cc1 [Compound 18, N-(6-phenylquinolin-4-yl)benzo[d]thiazol-5-amine]
IC50 (RIPK2 [1]): 0.024 ± 0.0116 µM
LipE (RIPK2 [2]): 5.81

Cn1cc(-c2ccc3nccc(Nc4ccc5scnc5c4)c3c2)cn1 [Compound 19, N-(6–(1-methyl-1H-pyrazol-4-yl)quinolin-4-yl)benzo[d]thiazol-5-amine]
IC50 (RIPK2 [1]): 0.0164 ± 0.0016 µM
LipE (RIPK2 [2]): 3.08

c1cc(Nc2ccc3scnc3c2)c2cc(-c3cn[nH]c3)ccc2n1 [Compound 20, N-(6-(1H-pyrazol-4-yl)quinolin-4-yl)benzo[d]thiazol-5-amine]
IC50 (RIPK2 [1]): 0.0082 ± 0.0016 µM
LipE (RIPK2 [2]): 3.04

Cc1n[nH]cc1-c1ccc2nccc(Nc3ccc4scnc4c3)c2c1 [Compound 21, N-(6–(3-methyl-1H-pyrazol-4-yl)quinolin-4-yl)benzo[d]thiazol-5-amine]
IC50 (RIPK2 [1]): 0.0041 ± 0.0009 µM
RIPK1 IR@1µM (%) (RIPK1): <1%
LipE (RIPK2 [2]): 4.99

Cc1cnn(C)c1-c1ccc2nccc(Nc3ccc4scnc4c3)c2c1 [Compound 22, N-(6–(1,4-dimethyl-1H-pyrazol-5-yl)quinolin-4-yl)benzo[d]thiazol-5-amine]
IC50 (RIPK2 [1]): 0.019 ± 0.0067 µM
LipE (RIPK2 [2]): 3.86

Cc1nn(C)cc1-c1ccc2nccc(Nc3ccc4scnc4c3)c2c1 [Compound 23, N-(6–(1,3-dimethyl-1H-pyrazol-4-yl)quinolin-4-yl)benzo[d]thiazol-5-amine]
IC50 (RIPK2 [1]): 0.0095 ± 0.0037 µM
LipE (RIPK2 [2]): 2.92

Cc1cscc1-c1ccc2nccc(Nc3ccc4scnc4c3)c2c1 [Compound 24, N-(6–(4-methylthiophen-3-yl)quinolin-4-yl)benzo[d]thiazol-5-amine]
IC50 (RIPK2 [1]): 0.0196 ± 0.012 µM
LipE (RIPK2 [2]): 2.37

c1cc(Nc2ccc3scnc3c2)c2cc(-c3ccc4[nH]ccc4c3)ccc2n1 [Compound 25, N-(6-(1H-indol-5-yl)quinolin-4-yl)benzo[d]thiazol-5-amine]
IC50 (RIPK2 [1]): 0.0111 ± 0.0036 µM
LipE (RIPK2 [2]): 3.87

c1cc(-c2ccc3nccc(Nc4ccc5scnc5c4)c3c2)c2cc[nH]c2c1 [Compound 26, N-(6-(1H-indol-4-yl)quinolin-4-yl)benzo[d]thiazol-5-amine]
IC50 (RIPK2 [1]): 0.0094 ± 0.0011 µM
LipE (RIPK2 [2]): 5.00

c1cc(-c2ccc3nccc(Nc4ccc5scnc5c4)c3c2)c2cn[nH]c2c1 [Compound 27, N-(6-(1H-indazol-4-yl)quinolin-4-yl)benzo[d]thiazol-5-amine]
IC50 (RIPK2 [1]): 0.0037 ± 0.0004 µM

c1cc(Nc2ccc3scnc3c2)c2cc(-c3ccnc4[nH]ccc34)ccc2n1 [Compound 28, N-(6-(1H-pyrrolo[2,3-b]pyridin-4-yl)quinolin-4-yl)benzo[d]thiazol-5-amine]
IC50 (RIPK2 [1]): 0.0073 ± 0.0035 µM
LipE (RIPK2 [2]): 3.46

c1ccc2c(-c3ccc4nccc(Nc5ccc6scnc6c5)c4c3)cncc2c1 [Compound 29, N-(6-(isoquinolin-4-yl)quinolin-4-yl)benzo[d]thiazol-5-amine]
IC50 (RIPK2 [1]): 0.0172 ± 0.0023 µM
LipE (RIPK2 [2]): 3.81

c1ccc2ncc(-c3ccc4nccc(Nc5ccc6scnc6c5)c4c3)cc2c1 [Compound 30, N-([3,6'-biquinolin]-4'-yl)benzo[d]thiazol-5-amine]
IC50 (RIPK2 [1]): 0.0417 ± 0.019 µM
LipE (RIPK2 [2]): 2.80

COc1cc(Nc2ccnc3ccc(-c4ccncc4)cc23)cc(OC)c1OC [Compound 31, 6-(Pyridin-4-yl)-N-(3,4,5-trimethoxyphenyl)quinolin-4-amine]
IC50 (RIPK2 [1]): 0.0081 ± 0.0039 µM
LipE (RIPK2 [2]): 3.87

COc1cc(Nc2ccnc3ccc(-c4cccnc4)cc23)cc(OC)c1OC [Compound 32, 6-(Pyridin-3-yl)-N-(3,4,5-trimethoxyphenyl)quinolin-4-amine]
IC50 (RIPK2 [1]): 0.0024 ± 0.0002 µM
RIPK1 IR@1µM (%) (RIPK1): 19%
LipE (RIPK2 [2]): 4.30

COc1cc(Nc2ccnc3ccc(-c4ccccn4)cc23)cc(OC)c1OC [Compound 33, 6-(Pyridin-2-yl)-N-(3,4,5-trimethoxyphenyl)quinolin-4-amine]
IC50 (RIPK2 [1]): 0.0124 ± 0.0089 µM
LipE (RIPK2 [2]): 3.26

COc1cc(Nc2ccnc3ccc(-c4cncnc4)cc23)cc(OC)c1OC [Compound 34, 6-(Pyrimidin-5-yl)-N-(3,4,5-trimethoxyphenyl)quinolin-4-amine]
IC50 (RIPK2 [1]): 0.011 ± 0.0017 µM
LipE (RIPK2 [2]): 4.58

COc1cc(Nc2ccnc3ccc(-c4cccc5[nH]ncc45)cc23)cc(OC)c1OC [Compound 35, 6–(1 h-indazol-4-yl)-N-(3,4,5-trimethoxyphenyl)quinolin-4-amine]
IC50 (RIPK2 [1]): 0.0071 ± 0.0047 µM
LipE (RIPK2 [2]): 3.24

COc1cc(Nc2ccnc3ccc(-c4cnn(C)c4)cc23)cc(OC)c1OC [Compound 36, 6–(1-Methyl-1H-pyrazol-4-yl)-N-(3,4,5-trimethoxyphenyl)quinolin-4-amine]
IC50 (RIPK2 [1]): 0.0072 ± 0.0026 µM
RIPK1 IR@1µM (%) (RIPK1): <1%
LipE (RIPK2 [2]): 3.67

COc1cc(Nc2ccnc3ccc(-c4cn[nH]c4)cc23)cc(OC)c1OC [Compound 37, 6–(1 h-pyrazol-4-yl)-N-(3,4,5-trimethoxyphenyl)quinolin-4-amine]
IC50 (RIPK2 [1]): 0.0145 ± 0.0056 µM
LipE (RIPK2 [2]): 4.22

COc1cc(Nc2ccnc3ccc(-c4c[nH]nc4C)cc23)cc(OC)c1OC [Compound 38, 6–(3-Methyl-1H-pyrazol-4-yl)-N-(3,4,5-trimethoxyphenyl)quinolin-4-amine]
IC50 (RIPK2 [1]): 0.0192 ± 0.0007 µM
LipE (RIPK2 [2]): 3.79

Source: paper PMC9683047, “Design, synthesis and biological evaluation of 4-aminoquinoline derivatives as receptor-interacting protein kinase 2 (RIPK2) inhibitors” (Journal of Enzyme Inhibition and Medicinal Chemistry, 2022)
